Assay results taken from patent publication US10155807B2, “Treating alcohol-mediated disorders by inhibition of RGS6” (UNIVERSITY OF IOWA RESEARCH FOUNDATION, priority 2014, dated 2018).

Legend:
[1] = target: T1, RGS6:Gαo protein:protein interaction (ppi) (Homo sapiens, UniProt P49758); assay: Alpha Screen dose response, RGS6:Gαo protein:protein interaction; type: binding; details: for IC50: Alpha Screen dose response, truncated RGS6 construct, read-out: IC50 for inhibition of RGS6:Gαo ppi; for selectivity for inhibiting the RGS6:Gαo ppi over the assay (control): ppi vs assay counter-screen
T1 sequence (P49758 336-441 limits assumed): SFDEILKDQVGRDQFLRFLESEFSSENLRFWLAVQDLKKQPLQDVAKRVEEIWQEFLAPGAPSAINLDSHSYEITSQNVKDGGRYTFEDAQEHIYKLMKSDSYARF
Excerpt: A high throughput screen based upon the protein-protein interaction between RGS6 and its cognate G protein has been developed. This is an approach used for other RGS proteins (Bodle et al. Future Med Chem 5: 995-1007, 2013; Mackie et al. J Biomol Screen 16: 869-877, 2011; Monroy et al. PloS one 8: e62247, 2013). Briefly, human RGS6 and G protein from E. coli is expressed and purified, which are then chemically modified to attach to microspheres. These microspheres (AlphaScreen) are then dispensed into high density experimental plates, with either 384 or 1536 wells per plate. Into each of these wells, an individual compound is dispensed, and through the use of a chemiluminescent reaction between the RGS6 and G protein coated beads, whether or not the two proteins are interacting is determined. […] A critical measure is the “Z-factor,” which indicates the ability to detect an inhibitor based on the screening signal strength, and the difference between positive and negative control values. A Z-factor between 0.5 and 1 is considered to be acceptable, and the Z-factor for the RGS6 assay is quite good, at 0.61. Using this method, a screen of 2320 compounds has been completed in 384-well plates. […] These compounds are being evaluated in testing for specificity and effectiveness in functional assays. Accessing the much larger 50,000 compound Chembridge library held by UI HTS will allow much larger coverage of “chemical space” to sample chemotypes that may represent RGS6 inhibitors with drug like properties.
As described herein, a role for RGS6 in the regulation of alcohol dependency traits, and that inhibition of this protein may act as a therapeutic intervention for the disease of alcohol addiction. As such, 2320 compounds were screened in an initial effort to discover small molecule inhibitors of the RGS6:Gαo protein:protein interaction (ppi). Alpha screen technology was used in this screen, where both proteins are conjugated to their respective donor or acceptor beads and if a ppi exists the proximity of the beads to each other results in emission of light at 520-620 nm. If a small molecule disrupts the ppi, then the intensity of light emitted is diminished.
IC50 values were obtained from dose response experiments using Alpha Screen technology. Compounds were determined to be promising based on these IC50 values, and based on the selectivity the compounds had for inhibiting the ppi versus inhibiting the assay. Since the Alpha Screen assay utilizes emitted light produced by singlet oxygen interacting with the acceptor bead as a determinant of ppi, highly colored compounds, or compounds that act as oxygen scavengers can produce false positive inhibition of the assay. […] This was not determined for UI1956.
The compounds identified in this screen represent the first generation of RGS6 inhibitors. A larger screening campaign will yield molecules that are both potent and selective for inhibiting RGS6 while containing minimal reactive substructures thus cutting down on the possible side effects that reactive molecules often produce. An additional screen will utilize the full RGS6 protein. This differs from the preliminary screen above in that a truncated RGS6 construct was used for ease of purification. […]

[2] = system: neonatal VCM isolated from WT and RGS6−/− mice; details: 1 μM, 1.5 hour pre-treatment; 200 mM EtOH 24 hours; WT vs RGS6−/− VCM
Method: Twenty-four hours after isolation and plating, cells were treated with 200 mM EtOH (24 hours) in the presence or absence of DPI (1 μM, 1.5 hour pre-treatment) where indicated. […] Intracellular ROS generation was estimated using the cell-permeable oxidation-sensitive probe, CM-H2DCFDA (Sigma) as described previously (Maity et al., J Biol Chem. 2011; 286(2):1409-19). Briefly, cells were harvested by centrifugation, washed three times with ice-cold PBS, re-suspended in PBS and incubated with 5 μM CM-H2DCFDA for 20 minutes at 37° C. After incubation cells were again washed and lysed in PBS with 1% Tween 20. ROS level was determined at the ratio of dichlorofluorescein excitation at 480 nm to emission at 530 nm.

RGS6−/− mice [3] = assay: Short-term free choice alcohol consumption with daily GABABR antagonist treatment; type: in vivo; details: 12.5 mg/kg i.p. daily; 8% EtOH free choice phase
Excerpt: RGS6 was identified as a critical negative regulator of cerebellum GABABR-regulated motor behavior (Maity et al., J Biol Chem. 2012; 287(7):4972-81). The involvement of GABABR signaling in the reduction in alcohol drinking observed in mice lacking RGS6 was investigated. […] Both the time course of GABABR-induced activation and deactivation of the mitogen activated protein kinase (MAPK) signaling cascade were pro-longed in the cortex of RGS6^−/− mice. […] To directly test the involvement of GABABR signaling in the reduction in alcohol seeking behavior seen in RGS6^−/− mice, the short-term free choice EtOH consumption paradigm was repeated with the addition of daily GABABR antagonist treatments.
Short-term alcohol consumption was measured in WT and RGS6^−/− mice essentially as previously described (Lockridge et al., Alcohol. 2012; 46(4):389-400). First, mice were individually housed for 2 days prior to the experiment. Each cage was then outfitted with two drinking bottles made from graduated serological pipettes sealed with parafilm to prevent evaporation and attached to each cage. […] Volume levels were recorded daily, tubes refilled and mice weighed. […] Alcohol (or saccharin/quinine) preference was calculated by dividing the EtOH volume consumed by the total fluid intake.

RGS6−/− mice [4] = assay: Activity measurement in home cage after baclofen (sedation); type: in vivo; details: 10 mg/kg i.p.; immobility time over 20 min
Method: After drug treatment mice were placed back in their home cage and behavior videotaped for 20 min. Videos were scored for total immobility time (no discernable ambulation, grooming, social or other behaviors) by an observer blinded to mouse genotype. Data are presented as percent total time spent immobile.

| Structure (SMILES) | IC50 [1] | selectivity for inhibiting the RGS6:Gαo ppi over the assay (control) [1] | other results |
| --- | --- | --- | --- |
| O=C1C=C2C[C@@]3(O)COc4cc(O)ccc4C3=C2C=C1O [UI1935] | 49 µM | 5 fold |  |
| c1ccc2c(c1)[I+]c1ccccc1-2 [DPI, diphenyleneiodonium] |  |  | alcohol-induced ROS generation in VCM [2]: significantly reduced ROS generation in WT but not RGS6^−/− VCM |
| CC1(C)CO[C@@H](CC(=O)O)CN1 [SCH-50911] |  |  | effect on reduced EtOH consumption of RGS6−/− mice (RGS6−/− mice [3]): partially reversed the reduction in alcohol consumption |
| Oc1ccc2c(c1)OCC1(O)Cc3cc(O)c(O)cc3C21 (centres unmarked) [UI1910] | 17 µM | 30 fold |  |
| O=c1c(-c2cc(O)c(O)c(O)c2)coc2cc(O)c(O)c(O)c12 [UI1956] | 42 µM |  |  |
| NCC(CC(=O)O)c1ccc(Cl)cc1 (centres unmarked) [baclofen] |  |  | sedative effect in RGS6−/− mice (RGS6−/− mice [4]): remarkably sensitized to the sedative effects |
